Measurements from patent US8192962B2, “Processes for detecting toxic substances” (Daikin Industries, Ltd., priority 2001, dated 2012).

Tested on: Mitochondria-located protein genes
Test: DNA chip mRNA expression in yeast, mitochondria-located protein genes (Table 2)
Type: cell-based, Saccharomyces cerevisiae S288C
Conditions: cells incubated two hours with the chemical substance
Summary of the method: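 Expression change after 2 h toxicant exposure (growth-inhibiting, sub-lethal) of log-phase S. cerevisiae S288C at 25° C. Oligo-dT-purified mRNA was labeled with Cy3-dUTP or Cy5-dUTP and hybridized >12 h at 65° C. to a genome-wide chip; ratio of scanned fluorescence to control.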

## Oc1cc(Cl)c(Cl)cc1Cl [(6), 2,4,5-trichlorophenol]
Yeast gene YJR121W
  The level of expressed mRNA in the presence of chemical substance/The level of expressed mRNA in the absence of chemical substance: 1.5
Yeast gene YKL003C
  The level of expressed mRNA in the presence of chemical substance/The level of expressed mRNA in the absence of chemical substance: 1.0
Yeast gene YKL016C
  The level of expressed mRNA in the presence of chemical substance/The level of expressed mRNA in the absence of chemical substance: 0.8
Yeast gene YKL141W
  The level of expressed mRNA in the presence of chemical substance/The level of expressed mRNA in the absence of chemical substance: 1.2
Yeast gene YKL142W
  The level of expressed mRNA in the presence of chemical substance/The level of expressed mRNA in the absence of chemical substance: 3.4
Yeast gene YKL148C
  The level of expressed mRNA in the presence of chemical substance/The level of expressed mRNA in the absence of chemical substance: 0.5
Yeast gene YKL170W
  The level of expressed mRNA in the presence of chemical substance/The level of expressed mRNA in the absence of chemical substance: 1.5
Yeast gene YKL194C
  The level of expressed mRNA in the presence of chemical substance/The level of expressed mRNA in the absence of chemical substance: 1.4
Yeast gene YKR066C
  The level of expressed mRNA in the presence of chemical substance/The level of expressed mRNA in the absence of chemical substance: 0.9
Yeast gene YLL041C
  The level of expressed mRNA in the presence of chemical substance/The level of expressed mRNA in the absence of chemical substance: 1.2
Yeast gene YLR038C
  The level of expressed mRNA in the presence of chemical substance/The level of expressed mRNA in the absence of chemical substance: 1.2
Yeast gene YLR259C
  The level of expressed mRNA in the presence of chemical substance/The level of expressed mRNA in the absence of chemical substance: 0.9
Yeast gene YLR295C
  The level of expressed mRNA in the presence of chemical substance/The level of expressed mRNA in the absence of chemical substance: 1.1
Yeast gene YLR304C
  The level of expressed mRNA in the presence of chemical substance/The level of expressed mRNA in the absence of chemical substance: 1.9
Yeast gene YLR348C
  The level of expressed mRNA in the presence of chemical substance/The level of expressed mRNA in the absence of chemical substance: 1.9
Yeast gene YLR395C
  The level of expressed mRNA in the presence of chemical substance/The level of expressed mRNA in the absence of chemical substance: 0.4
Yeast gene YML054C
  The level of expressed mRNA in the presence of chemical substance/The level of expressed mRNA in the absence of chemical substance: 1.8
Yeast gene YML120C
  The level of expressed mRNA in the presence of chemical substance/The level of expressed mRNA in the absence of chemical substance: 0.6
Yeast gene YML129C
  The level of expressed mRNA in the presence of chemical substance/The level of expressed mRNA in the absence of chemical substance: 1.7
Yeast gene YMR023C
  The level of expressed mRNA in the presence of chemical substance/The level of expressed mRNA in the absence of chemical substance: 1.1
Yeast gene YMR035W
  The level of expressed mRNA in the presence of chemical substance/The level of expressed mRNA in the absence of chemical substance: 1.5
Yeast gene YMR083W
  The level of expressed mRNA in the presence of chemical substance/The level of expressed mRNA in the absence of chemical substance: 1.8
Yeast gene YMR089C
  The level of expressed mRNA in the presence of chemical substance/The level of expressed mRNA in the absence of chemical substance: 1.2
Yeast gene YMR152W
  The level of expressed mRNA in the presence of chemical substance/The level of expressed mRNA in the absence of chemical substance: 7.5
Yeast gene YMR203W
  The level of expressed mRNA in the presence of chemical substance/The level of expressed mRNA in the absence of chemical substance: 1.1
Yeast gene YMR267W
  The level of expressed mRNA in the presence of chemical substance/The level of expressed mRNA in the absence of chemical substance: 1.4
Yeast gene YNL055C
  The level of expressed mRNA in the presence of chemical substance/The level of expressed mRNA in the absence of chemical substance: 2.6
Yeast gene YNL071W
  The level of expressed mRNA in the presence of chemical substance/The level of expressed mRNA in the absence of chemical substance: 1.3
Yeast gene YNL073W
  The level of expressed mRNA in the presence of chemical substance/The level of expressed mRNA in the absence of chemical substance: 0.5
Yeast gene YNL104C
  The level of expressed mRNA in the presence of chemical substance/The level of expressed mRNA in the absence of chemical substance: 0.8
Yeast gene YNL256W
  The level of expressed mRNA in the presence of chemical substance/The level of expressed mRNA in the absence of chemical substance: 0.5
Yeast gene YOL096C
  The level of expressed mRNA in the presence of chemical substance/The level of expressed mRNA in the absence of chemical substance: 1.3
Yeast gene YOR020C
  The level of expressed mRNA in the presence of chemical substance/The level of expressed mRNA in the absence of chemical substance: 2.3
Yeast gene YOR037W
  The level of expressed mRNA in the presence of chemical substance/The level of expressed mRNA in the absence of chemical substance: 1.6
Yeast gene YOR100C
  The level of expressed mRNA in the presence of chemical substance/The level of expressed mRNA in the absence of chemical substance: 1.2
Yeast gene YOR130C
  The level of expressed mRNA in the presence of chemical substance/The level of expressed mRNA in the absence of chemical substance: 1.6
Yeast gene YOR142W
  The level of expressed mRNA in the presence of chemical substance/The level of expressed mRNA in the absence of chemical substance: 1.6
Yeast gene YOR150W
  The level of expressed mRNA in the presence of chemical substance/The level of expressed mRNA in the absence of chemical substance: 0.9
Yeast gene YOR176W
  The level of expressed mRNA in the presence of chemical substance/The level of expressed mRNA in the absence of chemical substance: 0.9
Yeast gene YOR187W
  The level of expressed mRNA in the presence of chemical substance/The level of expressed mRNA in the absence of chemical substance: 1.7
Yeast gene YOR316C
  The level of expressed mRNA in the presence of chemical substance/The level of expressed mRNA in the absence of chemical substance: 0.9
Yeast gene YPL040C
  The level of expressed mRNA in the presence of chemical substance/The level of expressed mRNA in the absence of chemical substance: 1.1
Yeast gene YPL134C
  The level of expressed mRNA in the presence of chemical substance/The level of expressed mRNA in the absence of chemical substance: 1.2
Yeast gene YPL135W
  The level of expressed mRNA in the presence of chemical substance/The level of expressed mRNA in the absence of chemical substance: 1.3
Yeast gene YPL215W
  The level of expressed mRNA in the presence of chemical substance/The level of expressed mRNA in the absence of chemical substance: 0.7
Yeast gene YPL262W
  The level of expressed mRNA in the presence of chemical substance/The level of expressed mRNA in the absence of chemical substance: 1.6
Yeast gene YPR024W
  The level of expressed mRNA in the presence of chemical substance/The level of expressed mRNA in the absence of chemical substance: 1.0
Yeast gene YPR037C
  The level of expressed mRNA in the presence of chemical substance/The level of expressed mRNA in the absence of chemical substance: 0.9
Yeast gene YPR047W
  The level of expressed mRNA in the presence of chemical substance/The level of expressed mRNA in the absence of chemical substance: 1.0
Yeast gene YPR134W
  The level of expressed mRNA in the presence of chemical substance/The level of expressed mRNA in the absence of chemical substance: 0.6
